Results published in PMC11035696, “Prospective de novo drug design with deep interactome learning” (Nature Communications, 2024).
Where “and” joins values, the source holds several entries; their conditions need not be identical. Equal values may be shown once.

Legend:
[1] = test system: PPARγ; settings: known PPARγ activity of ChEMBL ligands; ref ChEMBL database; cited from earlier work
[2] = target: T1, human PPARγ (Homo sapiens, UniProt P37231); assay: Gal4-hybrid reporter gene assay, PPARγ activation; assay type: cell-based
T1 construct: expressed in transfected cells; host or cells: HEK293T
T1 sequence (P37231 238-503 limits assumed): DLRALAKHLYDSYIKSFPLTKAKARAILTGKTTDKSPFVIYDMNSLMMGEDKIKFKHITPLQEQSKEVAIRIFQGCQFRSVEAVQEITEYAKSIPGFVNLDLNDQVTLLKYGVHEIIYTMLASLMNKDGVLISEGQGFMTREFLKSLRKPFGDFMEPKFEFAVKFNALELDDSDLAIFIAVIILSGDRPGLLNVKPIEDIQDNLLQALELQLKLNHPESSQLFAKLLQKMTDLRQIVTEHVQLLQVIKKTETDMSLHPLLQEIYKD
Description: (§1) Compounds 1–3 were characterized in a hybrid reporter gene assay for their agoniztic effect on human nuclear receptors PPARα/γ/δ, RXRα, FXRα, RARα in HEK293T cells. Compound 1 was tested in an isothermal titration calorimetry (ITC) assay to measure direct binding affinity to the ligand-binding domain of PPARγ. ADME properties were measured in standardized assays at Roche.
(§2) PPAR activation was determined in uniform Gal4-hybrid reporter gene assays for the PPARα, PPARγ and PPARδ isoforms in HEK293T cells (German Collection of Microorganisms and Cell Culture GmbH, DSMZ) which were transiently transfected with pFR-Luc (Stratagene, La Jolla, CA, USA; reporter) and pRL-SV40 (Promega, Madison, WI, USA; internal control) and one pFA-CMV-hPPAR-LBD[97] clone, coding for the hinge region and ligand binding domain of the canonical isoform of human PPARα, PPARγ, PPARδ or respectively. Cells were cultured in Dulbecco’s modified Eagle’s medium (DMEM), high glucose supplemented with 10% fetal calf serum (FCS), sodium pyruvate (1 mM), penicillin (100 U ⋅ ml^-1), and streptomycin (100 μg ⋅ ml^-1) at 37 °C and 5% CO2 and seeded in 96-well plates (3 × 10^4 cells per well). After 24 h, medium was changed to Opti-MEM without supplements and cells were transiently transfected using Lipofectamine LTX reagent (Invitrogen) according to the manufacturer’s protocol. Five hours after transfection, cells were incubated with the test compounds in Opti-MEM supplemented with penicillin (100 U ⋅ ml^-1), streptomycin (100 μg ⋅ ml^-1) and 0.1% DMSO for 16 h before luciferase activity was measured using the Dual-Glo Luciferase Assay System (Promega) according to the manufacturer’s protocol on a Tecan Spark luminometer (Tecan Deutschland GmbH, Germany). Firefly luminescence was divided by Renilla luminescence and multiplied by 1000 resulting in relative light units (RLU) to normalize for transfection efficiency and cell growth. Fold activation was obtained by dividing the mean RLU of a test compound by the mean RLU of the untreated control. All samples were tested in at least three biologically independent experiments in duplicates. For dose-response curve fitting and calculation of EC50 values, the equation “[Agonist] versus response (variable slope—four parameters)” was used in GraphPad Prism (version 7.00, GraphPad Software, La Jolla, CA, USA) with fold activation data. The reference agonizts GW7647 (PPARα)[98],[99], pioglitazone (PPARγ)[100],[101] and L165,041 (PPARδ)[102],[103] were used to validate the assays and to monitor assay performance. Nuclear receptor selectivity profiling was performed with corresponding pFA-CMV-hNR-LBD clones and suitable reference agonizts on RARα (pFA-CMV-hRARα-LBD[104], 1 μM tretinoin), LXRα (pFA-CMV-hLXRα-LBD[104], 1 μM TO901317) and RXRα (pFA-CMV-h RXRα-LBD[105], 1 μM Bexarotene).

[3] = target: T2, human PPARδ (Homo sapiens, UniProt Q03181); assay: Gal4-hybrid reporter gene assay, PPARδ activation; assay type: cell-based; settings: result in words
T2 construct: expressed in transfected cells; host or cells: HEK293T
T2 sequence (Q03181 211-439 limits assumed): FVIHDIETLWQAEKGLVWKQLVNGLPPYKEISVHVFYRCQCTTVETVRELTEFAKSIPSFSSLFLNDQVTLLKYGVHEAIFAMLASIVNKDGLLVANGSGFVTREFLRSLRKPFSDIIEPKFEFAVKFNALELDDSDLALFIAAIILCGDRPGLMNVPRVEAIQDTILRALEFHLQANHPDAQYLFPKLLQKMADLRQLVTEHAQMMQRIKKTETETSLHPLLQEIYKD
Description: as §1
PPAR activation was determined in uniform Gal4-hybrid reporter gene assays for the PPARα, PPARγ and PPARδ isoforms in HEK293T cells (German Collection of Microorganisms and Cell Culture GmbH, DSMZ) which were transiently transfected with pFR-Luc (Stratagene, La Jolla, CA, USA; reporter) and pRL-SV40 (Promega, Madison, WI, USA; internal control) and one pFA-CMV-hPPAR-LBD[97] clone, coding for the hinge region and ligand binding domain of the canonical isoform of human PPARα, PPARγ, PPARδ or respectively. Cells were cultured in Dulbecco’s modified Eagle’s medium (DMEM), high glucose supplemented with 10% fetal calf serum (FCS), sodium pyruvate (1 mM), penicillin (100 U ⋅ ml^-1), and streptomycin (100 μg ⋅ ml^-1) at 37 °C and 5% CO2 and seeded in 96-well plates (3 × 10^4 cells per well). After 24 h, medium was changed to Opti-MEM without supplements and cells were transiently transfected using Lipofectamine LTX reagent (Invitrogen) according to the manufacturer’s protocol. Five hours after transfection, cells were incubated with the test compounds in Opti-MEM supplemented with penicillin (100 U ⋅ ml^-1), streptomycin (100 μg ⋅ ml^-1) and 0.1% DMSO for 16 h before luciferase activity was measured using the Dual-Glo Luciferase Assay System (Promega) according to the manufacturer’s protocol on a Tecan Spark luminometer (Tecan Deutschland GmbH, Germany). Firefly luminescence was divided by Renilla luminescence and multiplied by 1000 resulting in relative light units (RLU) to normalize for transfection efficiency and cell growth. Fold activation was obtained by dividing the mean RLU of a test compound by the mean RLU of the untreated control. […]

[4] = target: T3, human PPARα (Homo sapiens, UniProt Q07869); assay: Gal4-hybrid reporter gene assay, PPARα activation; assay type: cell-based; settings: for Fold PPARα activation: individual replicates, source data Fig. 5
T3 construct: expressed in transfected cells; host or cells: HEK293T
T3 sequence (Q07869 239-466 limits assumed): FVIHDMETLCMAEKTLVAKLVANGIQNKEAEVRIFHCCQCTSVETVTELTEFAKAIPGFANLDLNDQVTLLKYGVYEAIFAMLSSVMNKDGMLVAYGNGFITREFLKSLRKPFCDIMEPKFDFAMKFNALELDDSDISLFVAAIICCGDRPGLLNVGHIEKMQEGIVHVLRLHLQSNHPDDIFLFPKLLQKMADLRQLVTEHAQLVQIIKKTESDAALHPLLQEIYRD
Description: as §1, §2

[5] = target: T4, retinoid X receptor (RXR)α (Homo sapiens, UniProt P19793); assay: Nuclear receptor selectivity profiling, hybrid reporter gene assay, RXRα; assay type: cell-based
T4 construct: RXRα (pFA-CMV-h RXRα-LBD[105], 1 μM Bexarotene); expressed in transfected cells; host or cells: HEK293T
T4 sequence (P19793 227-458 limits assumed): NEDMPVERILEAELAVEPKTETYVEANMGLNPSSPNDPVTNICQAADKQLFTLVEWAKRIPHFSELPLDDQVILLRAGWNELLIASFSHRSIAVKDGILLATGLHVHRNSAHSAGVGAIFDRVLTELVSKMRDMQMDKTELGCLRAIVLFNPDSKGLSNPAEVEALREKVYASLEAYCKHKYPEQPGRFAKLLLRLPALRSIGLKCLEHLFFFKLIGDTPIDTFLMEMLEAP
Description: as §1, §2

[6] = target: T5, liver X receptor (LXR)α (Homo sapiens, UniProt Q13133); assay: Nuclear receptor selectivity profiling, hybrid reporter gene assay, LXRα; assay type: cell-based
T5 construct: LXRα (pFA-CMV-hLXRα-LBD[104], 1 μM TO901317); expressed in transfected cells; host or cells: HEK293T
T5 sequence (Q13133 209-447 limits assumed): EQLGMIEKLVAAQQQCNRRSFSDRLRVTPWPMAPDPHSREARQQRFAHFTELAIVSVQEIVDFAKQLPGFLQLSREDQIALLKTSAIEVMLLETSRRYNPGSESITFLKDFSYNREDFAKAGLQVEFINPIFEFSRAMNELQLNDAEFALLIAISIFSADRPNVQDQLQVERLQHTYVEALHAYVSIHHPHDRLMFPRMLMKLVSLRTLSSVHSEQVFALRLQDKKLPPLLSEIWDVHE
Description: as §2

[7] = target: T6, retinoic acid receptor (RAR)α (Homo sapiens, UniProt P10276); assay: Nuclear receptor selectivity profiling, hybrid reporter gene assay, RARα; assay type: cell-based
T6 construct: RARα (pFA-CMV-hRARα-LBD[104], 1 μM tretinoin); expressed in transfected cells; host or cells: HEK293T
T6 sequence (P10276 183-417 limits assumed): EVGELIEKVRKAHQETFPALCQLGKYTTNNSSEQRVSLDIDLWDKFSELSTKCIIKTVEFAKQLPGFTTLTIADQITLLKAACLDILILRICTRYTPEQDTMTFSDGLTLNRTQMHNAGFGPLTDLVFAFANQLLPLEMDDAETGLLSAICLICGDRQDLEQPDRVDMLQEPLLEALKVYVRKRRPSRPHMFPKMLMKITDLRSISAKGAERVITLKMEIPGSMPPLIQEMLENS
Description: as §1, §2

SMILES: Cc1cc(OCC[C@@H](C)Oc2ccc(Cl)cc2-c2ccccn2)ccc1CCC(=O)O [ChEMBL241299]
- pEC50 [1]: 6.51

SMILES: Cc1sc(-c2ccccc2F)nc1CCOc1ccc2c(c1)CC[C@H]2CC(=O)O [ChEMBL391987]
- pEC50 [1]: 6.94

SMILES: COc1ccc(Oc2ccc3c(c2)ncn3CCOc2ccc(CCC(=O)O)cc2)cc1 [Compound 3]
- PPARγ reporter activation, replicate values (Figure 5) ([2]; conc. 0,00000100 M): 3,029 and 3,245 and 3,909 and 5,555 and 6,269 and 5,771 and 5,328
- PPARγ reporter activation, replicate values (Figure 5) ([2]; conc. 0,00000200 M): 8,955 and 11,943 and 12,245 and 11,406
- PPARγ reporter activation, replicate values (Figure 5) ([2]; conc. 0,00000300 M): 17,358 and 14,143 and 17,954
- PPARγ reporter activation, replicate values (Figure 5) ([2]; conc. 0,00001000 M): 19,221 and 19,629 and 17,043 and 19,534 and 21,221 and 20,328 and 19,624
- PPARγ reporter activation, replicate values (Figure 5) ([2]; conc. 1,00000000e-007 M): 0,766 and 0,976 and 1,313
- PPARγ reporter activation, replicate values (Figure 5) ([2]; conc. 1,00000000e-008 M): 0,785 and 0,961 and 1,208
- PPARγ reporter activation, replicate values (Figure 5) ([2]; conc. 3,00000000e-007 M): 1,068 and 1,571 and 1,294 and 2,247 and 2,063 and 1,947 and 1,524
- EC50 ([2]; hybrid reporter gene assay, HEK293T cells, read-out: EC50(PPARγ)): 1800 ± 100 nM
- activity on PPARδ [3]: no discernible activity
- Fold PPARα activation ([4]; conc. 0,00000100 M): 1,270 and 1,357 and 1,503
- Fold PPARα activation ([4]; conc. 0,00000300 M): 2,302 and 2,145 and 2,016
- Fold PPARα activation ([4]; conc. 0,00000600 M): 4,397 and 3,518 and 3,421
- Fold PPARα activation ([4]; conc. 0,00001000 M): 4,249 and 4,283 and 3,276
- Fold PPARα activation ([4]; conc. 1,00000000e-007 M): 0,978 and 1,133 and 1,009
- Fold PPARα activation ([4]; conc. 1,00000000e-008 M): 1,321 and 1,277 and 1,261
- Fold PPARα activation ([4]; conc. 3,00000000e-007 M): 1,112 and 1,105 and 1,170
- EC50 ([4]; hybrid reporter gene assay, HEK293T cells): 3400 ± 300 nM
- RXRα reporter activation, replicate values (DMSO ctrl = 1,000) ([5]; 3 µM): 1,197 and 1,077 and 1,363
- RXRα reporter activation, replicate values (DMSO ctrl = 1,000) ([5]; 10 µM): 1,155 and 1,200 and 1,295
- LXRα reporter activation, replicate values (DMSO ctrl = 1,000) ([6]; 3 µM): 2,211 and 1,139 and 1,444
- LXRα reporter activation, replicate values (DMSO ctrl = 1,000) ([6]; 10 µM): 2,149 and 1,346 and 1,762
- RARα reporter activation, replicate values (DMSO ctrl = 1,000) ([7]; 3 µM): 1,594 and 0,817 and 1,542
- RARα reporter activation, replicate values (DMSO ctrl = 1,000) ([7]; 10 µM): 1,322 and 1,046 and 1,521
